Patent US8293764B2, “Compositions and methods for disruption of BRCA2-Rad51 interaction” (The Regents of the University of California, priority 2004, dated 2012)
“Also recorded” adds a separate entry of the source.

Columns and labels:
Type in all cases: cell-based
[1] = system: breast cancer cell lines (MDA-MB-231, MCF-7, MDA-MB-468, SKBR3 and MDA-MB-435); experiment: Cell growth curves, trypan blue exclusion assay; settings: 0, 5, 10, 20 μM; 1-5 days
Protocol: The inventors examined the effects of IBR2 on the growth and viability of a panel of breast cancer cell lines. Five exponentially growing breast cancer cell lines (MDA-MB-231, MCF-7, MDA-MB-468, SKBR3 and MDA-MB-435) were incubated with IBR2 at various concentrations (0, 5, 10 and 20 μM) for various periods of time (1, 2, 3, 4 and 5 days). The viable cell numbers were then counted by trypan blue exclusion assay. […] We also examined the effects of IBR2 on the growth and viability of cultured breast cancer cells (MDA-MB-468, MDA-MB-435, MCF-7, T47D) using the 3-(4,5-dimethylthiazol-2-yl)-2,5-diphenyltetrazolium bromide (MTT) assay.
Cell proliferation assay and clonogenic survival assays: To obtain cell growth curves, 1×10^4 cells were seeded in 12-well plate for 24 hours. Cells were then treated, in duplicate, with various concentrations of IBR2 in the presence of 0.4% DMSO. The viable cells were counted by trypan blue exclusion assay daily. MTT assay was performed as previously described (Alley et al., 1988).

[2] = system: MCF-7 cells; experiment: Fate of S phase cells after hydroxyurea synchronization (BrdU uptake, mitotic index, viable cells)
Protocol: To further examine the fate of cells in S phase upon IBR2 treatment, MCF-7 cells were synchronized at G1/S transition by hydroxyurea treatment and then released to allow S phase entry by washing out the reagents. These cells were treated with 20 μM IBR2 and BrdU, and BrdU uptake was measured for DNA synthesis, as well as the mitotic index and the number of viable cells during an 18-hour period. […] Moreover, the number of mock treated cells doubled at the completion of M phase, while the number of IBR2 treated cells decreased to around 50%.
Cell culture, cell synchronization, BrdU labeling and determination of mitotic index: Breast cancer cell lines and MEF cell lines were cultured in high-glucose Dulbecco modified Eagle medium containing 10% fetal bovine serum. MCF-10A cells were cultured as described previously (Debnath et al., 2003). Cell synchronization at M phase was achieved by treatment with 0.1 μg/ml nocodazole for 8 hours. Cell synchronization at G1/S boundary was achieved by treatment with 1 mM hydroxyurea for 17 hours, 9 hours of release and again with 1 mM hydroxyurea for 14 hours. For BrdU labeling, cells were incubated with BrdU for 30 minutes and fixed for BrdU immunostaining using a BrdU labeling kit (Amersham Biosciences). For determination of mitotic index, cells were fixed in 4% formaldehyde in PBS containing 0.1 μg/ml DAPI for 30 minutes at room temperature and examined by fluorescence microscopy. 500-1000 nuclei per sample were counted to determine the number of M phase cells which only includes prometaphase, metaphase, anaphase and telophase.

[3] = system: MCF-7 cells; experiment: Western blot of protein levels; settings: 20 mM IBR2, time dependent
Excerpt: To examine the impact of IBR2 on Rad51 protein expression, IBR2 treated MCF-7 cells was examined by straight western blot probed with a panel of antibodies against BRCA2, Rad51, Rad50, p84 and Rb. […] Consistent with our FACS analysis (FIG. 4A), the hypo-phosphorylated form of Rb, a marker for G1 phase, was the major form observed in the later time points, further confirming that IBR2 arrests cells at G1 phase (FIG. 4A). It has been reported that BRCA2 level is cell cycle dependent, which expresses low in G1 phase and peaks at G1/S boundary. Therefore the decreased level of BRCA2 in IBR2 treated cells may be due to G1 phase arrest. Different from BRCA2 protein, Rad51 protein is expressed constant throughout the cell cycle in MCF-7 cells (data not shown). Therefore, loss of Rad51 protein may be the direct effect of IBR2 treatment instead of the consequence of G1 arrest. To test whether IBR2 decreases Rad51 levels by destabilization, the inventors performed a stability assay by adding cyclohexamide (CHX) to inhibit de novo protein synthesis. […] Therefore, the inventors contemplate that IBR2 treated MCF-7 cells were arrested at G1, blocked at M phase entry, and died at S/G2 phase.
Western blot analysis: Cells were treated with 20 mM IBR2 or 50 μg/ml cycloheximide (CHX) or 1 μM MG132 and harvested at different time points for western blot analysis. Cells resuspended in Lysis 250 buffer were subjected to three freeze/thaw cycles (liquid nitrogen/37° C.) and then centrifuged at 14,000 rpm for 2 minutes at room temperature. After measuring protein concentration, equal amount of total cellular proteins were subjected to SDS-PAGE and immunoblot analyses were performed as described previously (Chen et al., 1999). Antibodies used were: Rad51 (rabbit 5952); BRCA2 (rabbit PC146, Oncogene); Rb (mAb 11D7); Rad50 (mAb 13B3) and p84 (mAb 5E10). The intensity of bands was quantified by densitometry using Labworks 4.5 software. The relative value of the band intensity was calculated with respect to that of untreated sample after normalization with the p84 signal.

[4] = system: MCF-7 breast cancer cells; experiment: Survival of cells under combination with chemotherapeutic agents or irradiation
Protocol: It is therefore likely that combination of IBR2 with other chemotherapeutic agents may have synergistic effects. To test this possibility, survival of MCF-7 breast cancer cells treated with 8 μM IBR2 plus different doses of VP-16, taxol, camptothecin, or gamma-irradiation was measured. […] Thus, it should be appreciated that a combination of IBR2 with other conventional therapeutic agents may have potential clinical applications in treating various cancers.
To perform clonogenic survival assay, 1.5×10^3 MCF-7 cells were seeded in 10-cm dishes for 24 hours. Cells were then treated, in triplicate, with 5 μM IBR2 for 12 hours and then g-irradiated. Cells were continuously exposed to 5 μM IBR2 and re-fed every 4 days with fresh medium and IBR2. After 14-16 days, cells were fixed and stained with 2% methylene blue. Colonies consisting of more than 50 cells were counted.

O=S(=O)(Cc1ccccc1)N1C=Cc2ccccc2C1c1c[nH]c2ccccc12 (stereo not drawn) [IBR2, 2-(benzylsulfonyl)-1-(1H-indol-3-yl)-1,2-dihydroisoquinoline]
growth of breast cancer cell lines (viable cell numbers) [1]: retarded growth of breast tumor cells in culture; also recorded: significantly inhibited the growth | DNA synthesis (BrdU uptake), S phase progression ([2]; 20 μM IBR2, 18-hour period): does not interfere with S phase progression | mitotic index (M phase entry) ([2]; 20 μM IBR2, 18-hour period): no or little IBR2 treated cells entered M phase | viability at 20 µM ([2]; Homo sapiens, MCF7, 20 μM IBR2, at completion of M phase, read-out: number of viable cells): ~50% | BRCA2 protein level [3]: decreased dramatically | Rad50 protein level [3]: remained constant | Rad51 protein level [3]: decreased dramatically | p84 protein level [3]: remained constant | synergy with VP-16 on cell survival ([4]; 8 μM IBR2 plus different doses of VP-16): Significant synergistic effects | synergy with camptothecin on cell survival ([4]; 8 μM IBR2 plus different doses of camptothecin): Significant synergistic effects | synergy with gamma-irradiation on clonogenic survival ([4]; 8 μM IBR2 plus different doses of gamma-irradiation): Significant synergistic effects | synergy with taxol on cell survival ([4]; 8 μM IBR2 plus different doses of taxol): Significant synergistic effects
